# Where two headings read alike, the source gives them in different places.
# Key:
# [1] = biological target: Peripheral Benzodiazepine Receptor (PBR) (Homo sapiens, UniProt P30536); assay: Secondary toxicity screen: Peripheral Benzodiazepine Receptor; type: binding
# AdenosineA1 [2] = biological target: T1, AdenosineA1 (Homo sapiens, UniProt P30542); assay: Secondary toxicity screen: Adenosine A1; type: binding
# T1 sequence (P30542 1-326): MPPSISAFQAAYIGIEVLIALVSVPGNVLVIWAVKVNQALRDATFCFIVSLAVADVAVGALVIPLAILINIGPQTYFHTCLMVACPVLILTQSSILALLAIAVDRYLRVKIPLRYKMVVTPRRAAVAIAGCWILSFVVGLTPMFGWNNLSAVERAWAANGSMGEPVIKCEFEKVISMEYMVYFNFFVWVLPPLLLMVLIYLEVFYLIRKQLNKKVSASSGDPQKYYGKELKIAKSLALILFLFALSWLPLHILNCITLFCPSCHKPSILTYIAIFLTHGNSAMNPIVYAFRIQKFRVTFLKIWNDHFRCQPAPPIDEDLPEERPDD
# [3] = test system: ATPase, Na+/K+, Heart, Pig; assay: Secondary toxicity screen (MDS Pharma Services): ATPase, Na+/K+; type: biochemical
# [4] = test system: Transporter, Monoamine rabbit; assay: Secondary toxicity screen: Transporter, Monoamine; type: binding
# [5] = biological target: Protein Tyrosine Kinase, ZA70 (ZAP-70) (Homo sapiens, UniProt P43403); assay: Secondary toxicity screen: ZAP-70; type: biochemical
# Protein Tyrosine Kinase, ZA70 (ZAP-70), sequence (P43403 whole entry, species assumed): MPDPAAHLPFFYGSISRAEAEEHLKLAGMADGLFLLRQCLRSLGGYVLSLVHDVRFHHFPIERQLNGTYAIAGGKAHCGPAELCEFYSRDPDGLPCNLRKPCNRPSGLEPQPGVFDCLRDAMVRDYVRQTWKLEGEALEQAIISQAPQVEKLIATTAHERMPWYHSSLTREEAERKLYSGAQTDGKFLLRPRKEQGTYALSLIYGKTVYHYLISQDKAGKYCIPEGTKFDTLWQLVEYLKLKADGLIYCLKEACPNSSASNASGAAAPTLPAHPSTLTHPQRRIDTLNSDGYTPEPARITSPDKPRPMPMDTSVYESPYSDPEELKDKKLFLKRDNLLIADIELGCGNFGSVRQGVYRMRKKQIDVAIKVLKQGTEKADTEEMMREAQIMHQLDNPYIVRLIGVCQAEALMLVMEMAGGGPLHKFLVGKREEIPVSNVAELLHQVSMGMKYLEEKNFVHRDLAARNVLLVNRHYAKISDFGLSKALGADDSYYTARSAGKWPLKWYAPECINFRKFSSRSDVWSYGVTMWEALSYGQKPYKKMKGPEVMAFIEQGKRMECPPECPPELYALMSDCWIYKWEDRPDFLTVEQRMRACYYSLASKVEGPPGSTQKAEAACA
# [6] = biological target: Serotonin (5-Hydroxytryptamine) 5-HT1A (Homo sapiens, UniProt P08908); assay: Secondary toxicity screen: 5-HT1A; type: binding
# Serotonin (5-Hydroxytryptamine) 5-HT1A, sequence (P08908 whole entry): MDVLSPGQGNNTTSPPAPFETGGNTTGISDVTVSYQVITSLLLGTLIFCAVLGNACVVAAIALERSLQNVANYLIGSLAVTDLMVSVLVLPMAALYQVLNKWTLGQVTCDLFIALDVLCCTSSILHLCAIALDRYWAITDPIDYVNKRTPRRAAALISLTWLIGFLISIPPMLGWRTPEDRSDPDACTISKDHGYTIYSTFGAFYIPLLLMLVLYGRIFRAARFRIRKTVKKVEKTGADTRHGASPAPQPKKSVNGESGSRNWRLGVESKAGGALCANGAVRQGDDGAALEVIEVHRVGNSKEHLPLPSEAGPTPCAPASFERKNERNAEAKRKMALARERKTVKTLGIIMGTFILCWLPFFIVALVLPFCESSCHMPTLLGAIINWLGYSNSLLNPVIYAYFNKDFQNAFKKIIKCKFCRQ
# AdrenergicA2A = biological target: T2, AdrenergicA2A (Homo sapiens, UniProt P08913); assay: AdrenergicA2A GTPγS functional assay; type: biochemical
# T2 sequence (P08913 1-465): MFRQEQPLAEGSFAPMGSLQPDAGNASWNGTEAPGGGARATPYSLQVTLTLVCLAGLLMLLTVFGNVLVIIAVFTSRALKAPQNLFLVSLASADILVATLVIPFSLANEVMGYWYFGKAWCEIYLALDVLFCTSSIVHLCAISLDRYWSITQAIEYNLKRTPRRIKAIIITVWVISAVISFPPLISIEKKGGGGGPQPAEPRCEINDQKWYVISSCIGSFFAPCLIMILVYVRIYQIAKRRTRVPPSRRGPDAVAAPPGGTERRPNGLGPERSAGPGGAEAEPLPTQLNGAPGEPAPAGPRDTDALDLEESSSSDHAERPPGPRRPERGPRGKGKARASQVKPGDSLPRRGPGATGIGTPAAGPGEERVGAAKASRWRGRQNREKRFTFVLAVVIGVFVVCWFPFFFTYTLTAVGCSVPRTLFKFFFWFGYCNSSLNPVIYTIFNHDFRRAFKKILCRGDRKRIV
# Experimental: (§1) The compound is additionally tested in AdenosineA1, AdrenergicA2A, DopamineD25, Histamine H1-, and μ-Opiate GTPγS functional assays using a concentration of 10 μM.
# (§2) The compound may be additionally tested in AdenosineA1, AdrenergicA2A, DopamineD25, Histamine H1-, and μ-Opiate GTPγS functional assays using a concentration of 10 μM.
# (§3) The compound can be additionally tested in AdenosineA1, AdrenergicA2A, DopamineD25, Histamine H1-, and μ-Opiate GTPγS functional assays using a concentration of 10 μM.
# [7] = biological target: Protein Tyrosine Kinase, FGFR2 (Homo sapiens, UniProt P21802); assay: Secondary toxicity screen: FGFR2; type: biochemical
# Protein Tyrosine Kinase, FGFR2, sequence (P21802 22-821): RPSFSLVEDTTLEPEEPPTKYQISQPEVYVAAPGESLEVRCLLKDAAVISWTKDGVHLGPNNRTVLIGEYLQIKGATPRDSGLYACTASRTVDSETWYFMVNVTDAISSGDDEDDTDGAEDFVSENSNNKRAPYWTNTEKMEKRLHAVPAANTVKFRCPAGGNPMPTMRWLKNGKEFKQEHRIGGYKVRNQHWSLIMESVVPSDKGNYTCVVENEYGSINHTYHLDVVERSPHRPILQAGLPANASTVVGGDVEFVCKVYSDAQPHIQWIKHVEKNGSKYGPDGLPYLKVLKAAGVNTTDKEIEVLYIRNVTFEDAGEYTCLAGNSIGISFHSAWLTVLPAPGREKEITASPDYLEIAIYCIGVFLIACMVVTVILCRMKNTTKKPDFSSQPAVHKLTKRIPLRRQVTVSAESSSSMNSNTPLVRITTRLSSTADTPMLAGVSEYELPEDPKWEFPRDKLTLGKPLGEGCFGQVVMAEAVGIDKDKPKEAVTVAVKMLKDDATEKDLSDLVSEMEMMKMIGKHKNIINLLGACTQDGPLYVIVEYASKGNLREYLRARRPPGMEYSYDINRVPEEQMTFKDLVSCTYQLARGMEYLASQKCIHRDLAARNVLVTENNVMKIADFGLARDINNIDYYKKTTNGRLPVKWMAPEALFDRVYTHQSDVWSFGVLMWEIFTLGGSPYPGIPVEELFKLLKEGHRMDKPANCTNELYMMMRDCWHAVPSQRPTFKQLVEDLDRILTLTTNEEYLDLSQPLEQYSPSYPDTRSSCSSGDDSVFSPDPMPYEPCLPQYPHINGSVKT
# [8] = biological target: Protein Tyrosine Kinase, FGFR1 (Homo sapiens, UniProt P11362); assay: Secondary toxicity screen: FGFR1; type: biochemical
# Protein Tyrosine Kinase, FGFR1, sequence (P11362 22-822): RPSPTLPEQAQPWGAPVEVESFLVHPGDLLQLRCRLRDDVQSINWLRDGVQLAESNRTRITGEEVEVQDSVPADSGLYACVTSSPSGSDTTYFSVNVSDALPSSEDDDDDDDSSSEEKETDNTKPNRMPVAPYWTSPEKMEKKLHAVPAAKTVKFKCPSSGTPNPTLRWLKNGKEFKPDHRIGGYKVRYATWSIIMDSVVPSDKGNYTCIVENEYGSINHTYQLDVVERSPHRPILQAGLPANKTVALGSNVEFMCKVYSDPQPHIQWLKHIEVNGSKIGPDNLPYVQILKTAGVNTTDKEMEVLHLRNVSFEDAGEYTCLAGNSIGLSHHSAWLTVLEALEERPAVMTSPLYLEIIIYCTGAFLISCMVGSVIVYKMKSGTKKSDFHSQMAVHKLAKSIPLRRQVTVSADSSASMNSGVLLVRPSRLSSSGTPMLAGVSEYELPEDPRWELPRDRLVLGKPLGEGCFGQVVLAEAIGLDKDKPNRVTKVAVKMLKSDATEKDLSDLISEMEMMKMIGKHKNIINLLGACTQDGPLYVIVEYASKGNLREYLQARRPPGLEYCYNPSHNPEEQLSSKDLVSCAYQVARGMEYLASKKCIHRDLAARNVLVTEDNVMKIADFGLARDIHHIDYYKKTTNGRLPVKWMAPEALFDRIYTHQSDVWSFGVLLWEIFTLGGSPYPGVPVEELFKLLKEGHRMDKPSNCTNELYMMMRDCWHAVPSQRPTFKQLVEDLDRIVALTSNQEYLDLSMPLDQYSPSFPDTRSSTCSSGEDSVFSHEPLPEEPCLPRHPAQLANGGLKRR
# AdenosineA1 [9] = biological target: T1, AdenosineA1; assay: AdenosineA1 GTPγS functional assay; type: biochemical
# Experimental: as §1, §2, §3
# [10] = biological target: UDP Glucuronosyltransferase, UGT1A1 (Homo sapiens, UniProt P22309)
# UDP Glucuronosyltransferase, UGT1A1, sequence (P22309 26-533): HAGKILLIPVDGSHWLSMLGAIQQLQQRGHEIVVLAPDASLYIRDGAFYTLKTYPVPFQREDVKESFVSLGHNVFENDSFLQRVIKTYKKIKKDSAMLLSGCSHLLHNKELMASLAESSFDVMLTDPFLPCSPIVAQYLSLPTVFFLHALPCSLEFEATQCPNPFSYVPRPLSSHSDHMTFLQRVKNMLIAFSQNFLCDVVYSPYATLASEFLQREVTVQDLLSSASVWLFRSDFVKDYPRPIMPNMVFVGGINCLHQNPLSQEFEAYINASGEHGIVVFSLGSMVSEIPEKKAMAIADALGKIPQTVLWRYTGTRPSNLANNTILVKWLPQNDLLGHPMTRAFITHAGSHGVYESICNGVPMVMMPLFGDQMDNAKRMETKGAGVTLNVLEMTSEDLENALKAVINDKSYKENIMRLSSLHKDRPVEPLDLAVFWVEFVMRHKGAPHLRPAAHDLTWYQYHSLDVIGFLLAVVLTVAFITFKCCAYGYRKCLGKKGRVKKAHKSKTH
# [11] = biological target: Protein Tyrosine Kinase, Insulin Receptor (Homo sapiens, UniProt P06213); assay: Secondary toxicity screen: Insulin Receptor kinase; type: biochemical
# Protein Tyrosine Kinase, Insulin Receptor, sequence (P06213 28-1382): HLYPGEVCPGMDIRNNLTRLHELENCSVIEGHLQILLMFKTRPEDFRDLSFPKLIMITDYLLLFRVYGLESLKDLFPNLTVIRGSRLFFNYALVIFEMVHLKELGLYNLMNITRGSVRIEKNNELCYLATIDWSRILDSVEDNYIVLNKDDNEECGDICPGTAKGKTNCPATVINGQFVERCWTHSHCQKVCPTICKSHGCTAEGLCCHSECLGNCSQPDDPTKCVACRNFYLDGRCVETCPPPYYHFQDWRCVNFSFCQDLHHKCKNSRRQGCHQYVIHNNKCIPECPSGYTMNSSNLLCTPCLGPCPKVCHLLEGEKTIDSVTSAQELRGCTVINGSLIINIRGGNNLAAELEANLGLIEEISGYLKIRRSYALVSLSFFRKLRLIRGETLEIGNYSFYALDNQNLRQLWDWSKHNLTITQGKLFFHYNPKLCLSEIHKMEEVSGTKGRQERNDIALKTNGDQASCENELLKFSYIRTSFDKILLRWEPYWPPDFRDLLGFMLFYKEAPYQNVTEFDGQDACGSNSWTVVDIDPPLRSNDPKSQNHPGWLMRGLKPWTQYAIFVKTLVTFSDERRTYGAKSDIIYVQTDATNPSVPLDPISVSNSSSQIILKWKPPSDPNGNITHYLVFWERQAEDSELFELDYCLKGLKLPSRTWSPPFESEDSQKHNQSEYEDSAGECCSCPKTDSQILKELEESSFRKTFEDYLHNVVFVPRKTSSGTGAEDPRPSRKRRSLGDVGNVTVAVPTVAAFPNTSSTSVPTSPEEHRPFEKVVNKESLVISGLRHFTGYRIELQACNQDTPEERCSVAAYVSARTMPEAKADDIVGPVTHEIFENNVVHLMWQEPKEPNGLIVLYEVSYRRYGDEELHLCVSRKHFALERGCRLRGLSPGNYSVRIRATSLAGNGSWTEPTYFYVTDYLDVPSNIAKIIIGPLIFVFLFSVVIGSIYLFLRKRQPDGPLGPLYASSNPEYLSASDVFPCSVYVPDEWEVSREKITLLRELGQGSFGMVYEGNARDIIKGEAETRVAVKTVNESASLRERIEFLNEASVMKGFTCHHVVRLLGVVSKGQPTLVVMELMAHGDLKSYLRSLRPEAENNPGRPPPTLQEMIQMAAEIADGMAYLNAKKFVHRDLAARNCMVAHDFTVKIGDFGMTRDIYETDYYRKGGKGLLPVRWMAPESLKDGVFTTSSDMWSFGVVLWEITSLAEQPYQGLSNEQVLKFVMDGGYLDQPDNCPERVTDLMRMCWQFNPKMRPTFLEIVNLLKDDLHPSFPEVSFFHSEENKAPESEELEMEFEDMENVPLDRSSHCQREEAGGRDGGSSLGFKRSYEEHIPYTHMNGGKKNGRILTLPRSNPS
# Dopamine D47 = assay: Secondary toxicity screen: Dopamine D47; type: binding
# Protein Tyrosine Kinase, = assay: Secondary toxicity screen: Protein Tyrosine Kinase (name not given); type: biochemical
# [12] = biological target: Nitric Oxide Synthase, Endothelial (eNOS) (Homo sapiens, UniProt P29474); assay: Secondary toxicity screen: eNOS; type: biochemical
# Adrenergic α2A = Adrenergic α2A (Homo sapiens, UniProt P08913); assay: Secondary toxicity screen: Adrenergic α2A; type: binding
# [13] = pH 8
# Experimental: Quercetin-3′-O-phosphate is dissolved in water at about pH 8.
# Fisetin-3′-O-phosphate is dissolved in water at about pH 8.
# Quercetin-3′-O-methylphosphonate (Compound 2) is dissolved in water at about pH 8.
# [14] = biological target: UGT1A1 (UDP glucuronosyltransferase) (Homo sapiens, UniProt P22309); assay: in vitro
# UGT1A1 (UDP glucuronosyltransferase), sequence (P22309 26-533): as the sequence (P22309 26-533) above
# [15] = 10 uM, read-out: percent inhibition at 10 μM
# Peripheral Benzodiazepine Receptor (PBR), sequence (P30536 whole entry, species assumed): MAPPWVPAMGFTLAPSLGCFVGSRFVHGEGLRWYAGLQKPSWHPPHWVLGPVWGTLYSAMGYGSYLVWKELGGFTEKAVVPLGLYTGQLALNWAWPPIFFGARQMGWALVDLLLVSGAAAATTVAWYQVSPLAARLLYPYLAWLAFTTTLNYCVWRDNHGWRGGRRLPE
smiles,measurement,setting,value
"O=c1c(O)c(-c2ccc(O)c(OP(=O)(O)O)c2)oc2cc(O)ccc12 [fisetin-3′-O-phosphate, Fisetin-3′-O-phosphate]",percent inhibition at 10 μM,[1],53%
same,percent inhibition at 10 μM,AdenosineA1 [2],50%
same,percent inhibition at 10 μM,[3],65%
same,percent inhibition at 10 μM,[4],68%
same,percent inhibition at 10 μM,[5],74%
same,percent inhibition at 10 μM,[6],62%
same,inhibition in the AdrenergicA2A assay,AdrenergicA2A,marked negative inhibition
same,percent inhibition at 10 μM,[7],94%
same,percent inhibition at 10 μM,[8],96%
same,antagonist activity in the AdenosineA1 assay,AdenosineA1 [9],48%
same,percent inhibition at 10 μM,[10],52%
same,percent inhibition at 10 μM,[11],91%
same,percent inhibition at 10 μM,Dopamine D47,51%
same,percent inhibition at 10 μM,"Protein Tyrosine Kinase,",82%
same,percent inhibition at 10 μM,[12],72%
same,percent inhibition at 10 μM,Adrenergic α2A,57%
same,degradation seen by NMR and HPLC,[13],no degradation
O=c1c(O)c(-c2ccc(O)c(OP(=O)(O)O)c2)oc2cc(O)cc(O)c12 [quercetin-3′-O-phosphate],inhibition at 10 µM,[1]; [15],53%
same,inhibition at 10 µM,[14],52%
same,inhibition at 10 µM,AdenosineA1 [2]; [15],50%
same,percent inhibition at 10 μM,[3]; 10 uM,65%
same,percent inhibition at 10 μM,[4]; 10 uM,68%
same,inhibition at 10 µM,[5]; [15],74%
same,inhibition at 10 µM,[6]; [15],62%
same,inhibition in the AdrenergicA2A assay,AdrenergicA2A; 10 μM,marked negative inhibition
same,inhibition at 10 µM,[7]; [15],94%
same,inhibition at 10 µM,[8]; [15],96%
same,antagonist activity in the AdenosineA1 assay,AdenosineA1 [9]; 10 μM,48%
same,inhibition at 10 µM,[11]; [15],91%
same,percent inhibition at 10 μM,Dopamine D47; 10 uM,51%
same,percent inhibition at 10 μM,"Protein Tyrosine Kinase,; 10 uM",82%
same,inhibition at 10 µM,[12]; [15],72%
same,inhibition at 10 µM,Adrenergic α2A; [15],57%
same,degradation seen by NMR and HPLC,[13],no degradation

# — patent US20100297020A1, “PHOSPHORYLATED AND PHOSPHONATED PYRONE ANALOGS FOR THERAPEUTIC TREATMENT” (Limerick Biopharma, Inc., priority 2008, published 2010)
